This is an account of results in US12227520B2 (priority 2019, dated 2025).

Read-outs that look alike come from different tables or passages of the source. Where only a bound is given, the exact number is not on record here.

Data set [1] can be described thus: Cytotoxicity assay in MT-4 cells. The settings on record: human, uninfected MT-4 cells, 5 days incubation; read-out: CC50. The format is cell-based, human. In short, it runs like this: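 For cytotoxicity, uninfected MT-4 cells were incubated with compounds 5 days at 37 °C, with 10 μM puromycin marking base cytotoxicity. Parallel plates used HIV-1 IIIB-infected (1:250 stock dilution) or mock cells with 5 μM AZT and no-drug controls. Read-out: CellTiter-Glo chemiluminescence.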

Another data set deals with HIV-1 (IIIB). Briefly: Antiviral assay in MT-4 cells (HIV MT-4 antiviral assay). The class given is cell-based. The following applies: Human immunodeficiency virus 1, IIIB, MT4, 120 h, HIV-1 (IIIB) in MT-4 cells, 5 days incubation; read-out: EC50. The method in brief: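 Read-out is CellTiter-Glo chemiluminescence after 5-day culture at 37° C, giving protection of MT-4 cells from HIV-1 IIIB cytopathicity. Compounds tested in 1:3 dilution series in complete RPMI; controls were no drug, mock infection and 5 μM AZT.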

The test system of the next data set is pLai RLuc reporter virus. Nature of the data set: microbe, parasite or virus in culture. The class given is cell-based, HIV. The following applies: Human immunodeficiency virus 1, 72 h. As to the method: To quantify the amount of protein binding to human serum, compounds were serially diluted (1:3) in DMSO and acoustically transferred onto 384-well assay plates via a Labcyte ECHO robot. Each plate contained up to 8 test compounds, including negative and positive controls, (DMSO, 5 μM AZT respectively). Assay plates were prepared in duplicate, and tested in either CCM (cell culture media) or HS/CCM (human serum/cell culture media). MT-4 cells were first pre-infected with pLai RLuc reporter virus for 2 h at 37° C., then further diluted in either CCM (RPMI media, 10% FBS, 1% P/S) or HS/CCM (RPMI media, 10% FBS, 50% HS, 1% P/S), and subsequently added to each plate using a Biotek Micro Flow dispenser. After a 72-h incubation in a humidified and temperature controlled incubator (37° C.), Renilla Glo (Promega) was added to all assay plates and chemiluminescence read using an Envision plate-reader. […] To determine the amount of protein binding, EC50 fold shifts (or EC50 shifts) were calculated by dividing EC50 (HS/CCM)/EC50 (CCM).

[2] abbreviates: read-out: Antiviral Serum Shift RLuc 50% HS, HS/CCM (RPMI media, 10% FBS, 50% HS, 1% P/S), 72-h incubation.
The mark [3] stands for this setting: read-out: Antiviral Serum Shift RLuc CCM, CCM (RPMI media, 10% FBS, 1% P/S), 72-h incubation.

`C[C@@H]1CC[C@H]2C[C@@]23CN1C(=O)c1c(O)c(=O)c(C(=O)NCc2c(F)cc(F)cc2F)cn13` [Example 150, (1aS,4R,11aS)-7-hydroxy-4-methyl-6,8-dioxo-N-(2,4,6-trifluorobenzyl)-1a,2,3,4,6,8-hexahydro-1H-5,11a-methanocyclopropa[h]pyrido[1,2-a][1,4]diazonine-9-carboxamide]: the 50% cytotoxic concentration (CC50) at 5 days in data set [1] was determined as 8490 nM. Further, the EC50 in the data set with HIV-1 (IIIB) was determined as 1.98 nM; in the data set on pLai RLuc reporter virus (setting [2]) it was 4.41 nM; in the data set on pLai RLuc reporter virus (setting [3]) it was 0.171 nM.

Turning to `O=C(NCc1c(F)cc(F)cc1F)c1cn2c(c(O)c1=O)C(=O)N1CCc3ccc(Br)cc3[C@H]2C1` (single isomer, unassigned) [Example 122-1], the CC50 at 5 days in data set [1] was found to be 4740 nM. Besides, the results for the EC50 with HIV-1 (IIIB), in the data set on pLai RLuc reporter virus (setting [2]) and in the data set on pLai RLuc reporter virus (setting [3]) were 2.57 nM, 4.78 nM and 0.534 nM, respectively.

For `O=C(NCc1ccc(F)cc1F)c1cn2c(c(O)c1=O)C(=O)N1CC2CCc2ccccc21` (centres unmarked) [Example 36, N-(2,4-difluorobenzyl)-7-hydroxy-6,8-dioxo-6,8,13,14-tetrahydro-12H-5,12-methanobenzo[e]pyrido[1,2-a][1,4]diazonine-9-carboxamide], the 50% cytotoxic concentration (CC50) at 5 days in data set [1] came to 17700 nM. In addition, the EC50 in the data set on HIV-1 (IIIB) amounted to 2 nM; in the data set on pLai RLuc reporter virus (setting [2]), 7.16 nM; in the data set with pLai RLuc reporter virus (setting [3]), 0.917 nM.

With `C[C@H]1C(F)=CC[C@H]2CN1C(=O)c1c(O)c(=O)c(C(=O)NCc3c(F)cc(F)cc3F)cn12` [Example 154-1, (3S,7S)-4-fluoro-12-hydroxy-3-methyl-1,11-dioxo-N-(2,4,6-trifluorobenzyl)-1,6,7,11-tetrahydro-3H-2,7-methanopyrido[1,2-a][1,4]diazonine-10-carboxamide], the CC50 at 5 days in data set [1] was 25700 nM. The values for the EC50 with HIV-1 (IIIB), with pLai RLuc reporter virus (setting [2]) and in the data set with pLai RLuc reporter virus (setting [3]) were 1.64 nM, 4.29 nM and 0.297 nM, respectively.

Regarding `C[C@H]1[C@H](F)CC[C@H]2CN1C(=O)c1c(O)c(=O)c(C(=O)NCc3c(F)cc(F)cc3F)cn12` [Example 158, (3S,4R,7S)-4-fluoro-12-hydroxy-3-methyl-1,11-dioxo-N-(2,4,6-trifluorobenzyl)-1,4,5,6,7,11-hexahydro-3H-2,7-methanopyrido[1,2-a][1,4]diazonine-10-carboxamide], the 50% cytotoxic concentration (CC50) at 5 days in data set [1] was 8830 nM. In addition, the EC50 with HIV-1 (IIIB) turned out to be 1.67 nM; with pLai RLuc reporter virus (setting [2]), 49.7 nM; in the data set on pLai RLuc reporter virus (setting [3]) it was 0.306 nM.

As to `O=C(NCc1c(F)cc(F)cc1F)c1cn2c(c(O)c1=O)C(=O)N1Cc3ccc(Cl)cc3C[C@H]2C1` (single isomer, unassigned) [Example 127-1], in data set [1], the CC50 at 5 days was 5630 nM. The EC50 in the data set on HIV-1 (IIIB) turned out to be 1.38 nM; in the data set with pLai RLuc reporter virus (setting [2]), 2.93 nM; in the data set with pLai RLuc reporter virus (setting [3]) it was 0.324 nM.

`O=C(NCc1ccc(F)c(Cl)c1F)c1cn2c(c(O)c1=O)C(=O)N1CC2CCc2cc(F)c(F)cc21` (centres unmarked) [Example 69, N-(3-chloro-2,4-difluorobenzyl)-2,3-difluoro-7-hydroxy-6,8-dioxo-6,8,13,14-tetrahydro-12H-5,12-methanobenzo[e]pyrido[1,2-a][1,4]diazonine-9-carboxamide]: the CC50 at 5 days in data set [1] came out at 36700 nM. For the same compound, the EC50 with HIV-1 (IIIB) is 1.95 nM; in the data set on pLai RLuc reporter virus (setting [2]), 1.06 nM; in the data set with pLai RLuc reporter virus (setting [3]) it was 0.199 nM.

Regarding `O=C(NCc1ccc(F)cc1F)c1cn2c(c(O)c1=O)C(=O)N1C[C@@H]2CCC[C@@H]1CF` [Example 165, (3R,7S)—N-(2,4-difluorobenzyl)-3-(fluoromethyl)-12-hydroxy-1,11-dioxo-1,4,5,6,7,11-hexahydro-3H-2,7-methanopyrido[1,2-a][1,4]diazonine-10-carboxamide], the CC50 at 5 days in data set [1] came to 9610 nM. Moreover, the values for the EC50 in the data set with HIV-1 (IIIB), in the data set on pLai RLuc reporter virus (setting [2]) and in the data set with pLai RLuc reporter virus (setting [3]) were 1.1 nM, 7.33 nM and 0.351 nM, respectively.

`C[C@@]1(O)CCCN2C[C@@H]1n1cc(C(=O)NCc3ccc(F)cc3F)c(=O)c(O)c1C2=O` [Example 14-2, (6R,7S)—N-(2,4-difluorobenzyl)-6,12-dihydroxy-6-methyl-1,11-dioxo-1,4,5,6,7,11-hexahydro-3H-2,7-methanopyrido[1,2-a][1,4]diazonine-10-carboxamide]: the CC50 at 5 days in data set [1] turned out to be 19900 nM. For the same compound, the EC50 stood at 2.7 nM with HIV-1 (IIIB), 0.414 nM in the data set with pLai RLuc reporter virus (setting [2]) and 0.567 nM with pLai RLuc reporter virus (setting [3]).

On to `O=C(NCc1ccc(F)cc1F)c1cn2c(c(O)c1=O)C(=O)N1C[C@@H](F)CC[C@H]2C1` (single isomer, unassigned) [Example 53-2], for which the 50% cytotoxic concentration (CC50) at 5 days in data set [1] is 28400 nM. Also, the figures for the EC50 with HIV-1 (IIIB), in the data set on pLai RLuc reporter virus (setting [2]) and in the data set with pLai RLuc reporter virus (setting [3]) were 6.2 nM, 2.27 nM and 1.58 nM, respectively.

As to `O=C(NCc1c(F)cc(F)cc1F)c1cn2c(c(O)c1=O)C(=O)N1CCC[C@@H](O)C[C@H]2C1` [Example 82-2, (6R,8S)-6,13-dihydroxy-1,12-dioxo-N-(2,4,6-trifluorobenzyl)-1,3,4,5,6,7,8,12-octahydro-2,8-methanopyrido[1,2-a][1,4]diazecine-11-carboxamide], in data set [1], the CC50 at 5 days is more than 50000 nM. For the same compound, the EC50 in the data set with HIV-1 (IIIB) was found to be 9.57 nM; with pLai RLuc reporter virus (setting [2]), 3 nM; in the data set with pLai RLuc reporter virus (setting [3]) it was 2.09 nM.

In the case of `O=C(NCc1ccc(F)c(Cl)c1Cl)c1cn2c(c(O)c1=O)C(=O)N1CCCC[C@H]2C1` [Example 62, (7S)—N-(2,3-dichloro-4-fluorobenzyl)-12-hydroxy-1,11-dioxo-1,4,5,6,7,11-hexahydro-3H-2,7-methanopyrido[1,2-a][1,4]diazonine-10-carboxamide], in data set [1], the CC50 at 5 days was 3460 nM. The figures for the EC50 with HIV-1 (IIIB), in the data set on pLai RLuc reporter virus (setting [2]) and in the data set on pLai RLuc reporter virus (setting [3]) were 1.27 nM, 4.22 nM and 0.292 nM, respectively.

Take `O=C(NCc1ccc(F)c(Cl)c1F)c1cn2c(c(O)c1=O)C(=O)N1CC=CC[C@H]2C1` [Example 58, (7S)—N-(3-chloro-2,4-difluorobenzyl)-12-hydroxy-1,11-dioxo-1,6,7,11-tetrahydro-3H-2,7-methanopyrido[1,2-a][1,4]diazonine-10-carboxamide]: the CC50 at 5 days in data set [1] was found to be 4150 nM. The figures for the EC50 in the data set with HIV-1 (IIIB), in the data set on pLai RLuc reporter virus (setting [2]) and in the data set on pLai RLuc reporter virus (setting [3]) were 0.986 nM, 1.67 nM and 0.25 nM, respectively.

Turning to `O=C(NCc1c(F)cc(F)cc1F)c1cn2c(c(O)c1=O)C(=O)N1C[C@H]2CCc2c(F)cccc21` [Example 43-2, (12R)-1-fluoro-7-hydroxy-6,8-dioxo-N-(2,4,6-trifluorobenzyl)-6,8,13,14-tetrahydro-12H-5,12-methanobenzo[e]pyrido[1,2-a][1,4]diazonine-9-carboxamide], the CC50 at 5 days in data set [1] amounted to 9150 nM. Moreover, the EC50 in the data set with HIV-1 (IIIB) came out at 1.57 nM; in the data set with pLai RLuc reporter virus (setting [2]) it was 0.647 nM; in the data set on pLai RLuc reporter virus (setting [3]), 0.289 nM.

Turning to `O=C(NCc1c(F)cc(F)cc1F)c1cn2c(c(O)c1=O)C(=O)N1C[C@@H]2CCC[C@@H]1CF` [Example 164, (3R,7S)-3-(fluoromethyl)-12-hydroxy-1,11-dioxo-N-(2,4,6-trifluorobenzyl)-1,4,5,6,7,11-hexahydro-3H-2,7-methanopyrido[1,2-a][1,4]diazonine-10-carboxamide], the CC50 at 5 days in data set [1] stood at 10400 nM. Also, the EC50 is 1.21 nM in the data set on HIV-1 (IIIB), 13.3 nM in the data set on pLai RLuc reporter virus (setting [2]) and 0.333 nM in the data set with pLai RLuc reporter virus (setting [3]).

For `COc1cccc(CNC(=O)c2cn3c(c(O)c2=O)C(=O)N2CCCC[C@H]3C2)c1F` [Example 54], the cytotoxic concentration (CC50) at 5 days in data set [1] stood at 1460 nM. In the data set on HIV-1 (IIIB), the EC50 was found to be 36 nM.
